Common to all, as to assay type: functional
Experiment [1] in a line: Antioxidant activity assessed as DPPH scavenging activity after 20 mins by spectrophotometry. Also noted: concentration or dose not given beside the values. A general note: DPPH is a stable violet radical that fades when it is reduced.
Experiment [2] is described as follows: Antioxidant activity assessed as ascorbic acid equivalent antioxidant capacity per mg sample after 90 mins by phosphomolybdenum method.
The nature of experiment [3]: Antioxidant activity assessed as effective concentration for potassium ferric cyanide ion reducing power equivalent of 0.5 absorbance ellagic acid at 100 to 1000 ug/ml after 20 mins by FRAP assay.

In the case of `O=c1c2c([nH]n1-c1ccccc1)C=C(c1ccc(F)cc1)CC2c1ccc(Cl)cc1` (stereo not drawn), the Activity in experiment [1] came out at 94%; in experiment [2], 2.59 µM; in experiment [3], 1.49 mg/mL.
For `O=c1c2c([nH]n1-c1ccc([N+](=O)[O-])cc1[N+](=O)[O-])C=C(c1ccc(F)cc1)CC2c1ccc(Cl)cc1` (stereo not drawn) the same measures were 19.6%, 7.83 µM and 0.75 mg/mL.
Taken in the same sequence, the figures for `O=c1c2c([nH]n1-c1ccccc1)C=C(c1ccc(F)cc1)CC2c1ccccc1` (stereo not drawn) were 90.2%, 3.95 µM and 1.95 mg/mL.
As to `N[C@@H](CCC(=O)N[C@@H](CS)C(=O)NCC(=O)O)C(=O)O`, the Activity in experiment [1] stood at 92.1%.
Consider `O=c1[nH][nH]c2c1C(c1ccc(Cl)cc1)CC(c1ccc(F)cc1)=C2` (stereo not drawn), for which the figures for the Activity in experiment [1], in experiment [2] and in experiment [3] were 17.9%, 8.4 µM and 1.2 mg/mL, respectively.
Taken in the same sequence, the figures for `O=c1c2c([nH]n1-c1ccc([N+](=O)[O-])cc1)C=C(c1ccc(F)cc1)CC2c1ccc(Cl)cc1` (stereo not drawn) were 84.4%, 6.22 µM and 0.95 mg/mL.
For the compound `O=c1oc2c(O)c(O)cc3c(=O)oc4c(O)c(O)cc1c4c23`, the Activity in experiment [3] was 0.105 mg/mL.
As for `O=c1[nH][nH]c2c1C(c1ccc(Br)cc1)CC(c1ccc(F)cc1)=C2` (stereo not drawn), the results for the Activity in experiment [1], in experiment [2] and in experiment [3] were 16.2%, 1.17 µM and 1.14 mg/mL, respectively.
For the compound `O=c1[nH][nH]c2c1C(c1ccccc1)CC(c1ccc(F)cc1)=C2` (stereo not drawn), the Activity stood at 19.8% in experiment [1], 4.75 µM in experiment [2] and 0.63 mg/mL in experiment [3].
Take `O=c1c2c([nH]n1-c1ccc([N+](=O)[O-])cc1)C=C(c1ccc(F)cc1)CC2c1ccc(Br)cc1` (stereo not drawn): the Activity in experiment [1] was 85.3%; in experiment [2], 0.58 µM; in experiment [3], 0.64 mg/mL.
Taken in the same sequence, the figures for `O=c1c2c([nH]n1-c1ccccc1)C=C(c1ccc(F)cc1)CC2c1ccc(Br)cc1` (stereo not drawn) were 96.8%, 1.97 µM and 0.802 mg/mL.
On to `O=c1c2c([nH]n1-c1ccc([N+](=O)[O-])cc1[N+](=O)[O-])C=C(c1ccc(F)cc1)CC2c1ccc(Br)cc1` (stereo not drawn), for which the Activity stood at 2.34% in experiment [1], 4.69 µM in experiment [2] and 0.76 mg/mL in experiment [3].
As for `O=c1c2c([nH]n1-c1ccc([N+](=O)[O-])cc1)C=C(c1ccc(F)cc1)CC2c1ccccc1` (stereo not drawn), the values for the Activity in experiment [1], in experiment [2] and in experiment [3] were 89.6%, 0.69 µM and 0.47 mg/mL, respectively.
Turning to `O=c1c2c([nH]n1-c1ccc([N+](=O)[O-])cc1[N+](=O)[O-])C=C(c1ccc(F)cc1)CC2c1ccccc1` (stereo not drawn), the Activity turned out to be 4.21% in experiment [1], 16.2 µM in experiment [2] and 3.26 mg/mL in experiment [3].

The values above are taken from ChEMBL document CHEMBL2424554, “Synthesis of new indazole derivatives as potential antioxidant agents” (Med Chem Res, 2013).
